# Results from paper PMC7830115, “Design, Synthesis, Molecular Docking, and Tumor Resistance Reversal Activity Evaluation of Matrine Derivative with Thiophene Structure” (Molecules, 2021).
# Legend:
# CNE2/CDDP = assay: MTT cytotoxicity assay, CNE2/CDDP; type: cell-based; settings: Homo sapiens, CNE-2, 72 h, cisplatin resistant cell line, mean ± SD
# Method: (§1) Prior to determining the combined inhibitory effects against NPC CDDP-resistance cells, the cytotoxicity effects of these 8 derivatives were evaluated against three NPC cell lines (CNE2, HONE1, and HK-1) and CDDP resistance cell line (CNE2/CDDP) by using MTT (3-(4,5-dimethyl-2-thiazolyl)-2,5-diphenyl-2-H-tetrazolium bromide) assays. […] Moreover, a liver normal cell LO2 was involved to evaluate the selectivity of these 8 compounds by using MTT assays.
# (§2) Nasopharyngeal carcinoma cells (CNE2, HONE1, and CNE2/CDDP) were purchased from Shanghai Aulu Biological Technologh Co., Ltd. (Shanghai, China). HK-1 cell was purchased from Shanghai Shunran Biological Technologh Co., Ltd. CNE2, HONE1, and HK-1 were cultured in DMEM medium supplemented with 10% fetal bovine serum, 1% penicillin-streptomycin. CDDP-resistant NPC cell CNE2/CDDP was cultured in DMEM medium supplemented with CDDP to sustain its drug resistance. Cell viability was detected using the MTT assay. All the 8 derivatives were resolved with DMSO to make a storage solution at 1 M, and CDDP was resolved with phosphate buffer saline (PBS) to make a storage solution at 100 mM. The maximum concentrations of these 8 derivatives and CDDP used in MTT assays were set as 1 mM and 100 µM diluted with DMEM medium, respectively. Medium with 0.1% DMSO was set as control. To begin, an initial MTT assay was conducted to evaluate the cytotoxicity of 3a~3h with a dose range of 50, 100, 200, 400, and 800 µM. Then, a more precise dose range was set to calculate the IC50 of each compound (For 3a~3e: 50, 100, 200, 400, 600, and 800 µM; for 3f~3h: 12.5, 25, 50, 100, 200, and 400 µM). Then, 5000 cells were seeded in a 96-well plate for each well and treated with respective compounds at different concentrations for 72 h following additional treatment with MTT for 2~3 h. Then, MTT was removed and 150 µL DMSO was added into each well and the absorption values were measured at 490 nm using a SpectraMAX M5plate reader (Silicon Valley, CA, USA).
# CNE2/CDDP cells [1] = assay: Subcutaneous tumor-bearing model, CNE2/CDDP; type: in vivo
# Method: (§3) Finally, to evaluate the combination inhibitory effects of compound 3f with CDDP in vivo, the subcutaneous tumor-bearing model was applied by using strain of BALB/C nude mice. In detail, 32 BALB/C nude mice without tumor were purchased and CNE2/CDDP cells (2 × 10^7) were subcutaneously injected into the right flank of each mouse to make tumor burden. Then, the 32 mice with tumor burden were divided into four groups which receive vehicle, CDDP (5 mg/kg), compound 3f (40 mg/kg), and CDDP with 3f combination treatments (5mg/kg for CDDP and 40 mg/kg for 3f), respectively, through intraperitoneal injection with two times a week for one month. […] The adverse effects of treatment were also tested by detecting serum concentration of Alanine Aminotransferase (ALT), Aspartate aminotransferase (AST), and creatinine (Cr).
# The in vivo studies were conducted according to protocols approved by the Animal Ethics Committee of Guangxi University (GXU2018-019). The subcutaneous tumor-bearing model using BALB/C nude mice was applied to assess the in vivo CDDP-resistant reversal activity of compound 3f. In brief, 32 BALB/C nude mice without tumor were purchased and CNE2/CDDP cells (2 × 10^7) were subcutaneously injected into the right flank of each mouse to make tumor burden. Then, the 32 mice with tumor burden were divided into four groups which receive vehicle, CDDP (5 mg/kg), compound 3f (40 mg/kg), and CDDP with 3f combination treatments (5 mg/kg for CDDP and 40 mg/kg for 3f) (n = 8 for each group; twice a week for a month). Drugs were resolved with sterile saline–ethanol–DMSO (89:10:1, v/v/v). Sterile saline–ethanol–DMSO (89:10:1, v/v/v) was used as vehicle. Tumor volume was calculated according to the formula: V = 0.5 × L × W^2 (L: the long diameter of the tumor; W: the short diameter of the tumor). At the time of the animal sacrifice, tumors were excised and weighted.
# CNE2 = assay: MTT cytotoxicity assay, CNE2; type: cell-based; settings: Homo sapiens, CNE-2, 72 h, mean ± SD
# Method: as §1, §2
# CNE2/CDDP cells [2] = assay: Synergistic inhibitory effect with CDDP, combination index (Chou-Talalay); type: cell-based; settings: treated simultaneously with 3f (20, 40, 60 µM) and CDDP (5, 10, 15 µM), 72 h; CI < 1 synergism
# Method: To determine whether compound 3f display synergistic inhibitory effects with CDDP against CNE2/CDDP cells, an MTT assay was performed. Cells were co-treated with compound 3f and CDDP or treated with CDDP or 3f alone. There are 9 groups of the combination between 3f and CDDP (Table 2). Inhibition rates were calculated, and the fraction affected (Fa) and CI (Combination Index) were generated for each group, and dose–effect curves were obtained. The CI greater than, equal to, and less than 1.0 indicate antagonistic, additive and synergistic effects, respectively.
# The combination index (CI) was evaluated using Calcusyn 2.0 based on the Chou-Talalay method. Data from cell viability assays were applied to the CI calculation.
# Figure 2 Synergistic inhibitory effects of compound 3f with CDDP in CNE2/CDDP cells. CNE2/CDDP cells were cultured with 3f and/or CDDP. After 72 h, 3-(4,5-dimethyl-2-thiazolyl)-2,5-diphenyl-2-H-tetrazolium bromide (MTT) was added. Two hours later, optical density (OD) was detected, and the inhibition rate was quantified. Combination Index (CI) plots were then generated using the Chou-Talay method and Calcusyn software.
# [3] = Serum ALT, AST and Cr by ELISA; type: in vivo, BALB/C nude mice; settings: groups: vehicle, CDDP 5 mg/kg, 3f 40 mg/kg, combination; ELISA at sacrifice
# Method: as §3
# Mice were sacked at the time of the animal sacrifice and blood was collected to detect ALT, AST, and Cr. Immediately, serum was separated by centrifugation at 2000 g, and ALT, Cr, and AST were determined using ELISA kits (Shanghai Enzyme-linked Biotechnology Co., Ltd., catalog: ml063179, ml058577, and ml057581) according to the manufacture instructions. The absorbance of the plates was read at 450 nm using an automated microplate reader (Bio-Tek, Winooski, VT, USA).
compound,measurement,setting,value
"S=C1C(=Cc2ccc(Cl)s2)CCC2C3CCCN4CCCC(CN12)C34 (stereo not shown) [3f, 14-((5-chlorothiophen-2-yl)methylene)thiomatrine]",IC50,CNE2/CDDP,91.4 ± 8.8 µM
same,"tumor volume and weight, combined treatment with CDDP","CNE2/CDDP cells [1]; CDDP 5 mg/kg + 3f 40 mg/kg, intraperitoneal, twice a week for one month, compared with CDDP or 3f alone",significantly reduced tumor volume and weight
same,toxicity in vivo,"CNE2/CDDP cells [1]; dose of 40 mg/kg, reflected by mouse body weight and ALT, AST, Cr",no obvious toxicity
same,body weight of mice,"CNE2/CDDP cells [1]; groups: vehicle, CDDP 5 mg/kg, 3f 40 mg/kg, combination, i.p. twice a week for one month",no significant difference in body weight
same,IC50,CNE2,35.7 ± 3.4 µM
same,CI (Combination Index),CNE2/CDDP cells [2],less than 1
same,"serum concentrations of ALT, AST, and Cr",[3],no significant changes
